Test results reported in publication PMC5352362, “Molecular and functional evaluation of a novel HIF inhibitor, benzopyranyl 1,2,3-triazole compound” (Oncotarget, 2016).
Where two headings read alike, the source gives them in different places.

Key:
[1] = tested on: chick chorioallantoic membrane angiogenesis; test: Chick embryo chorioallantoic membrane (CAM) assay; format: in vivo; details: applied to ED 4.5 CAM for two days; Compound 12 0.1 μg and 1 μg
Description: Figure 5 Compound 12 suppressed HIF-1α target gene expression, and confirmation of in vitro results via determination of effects on angiogenesis in vivo (A) A549 cells were treated with Compound 12 (at concentrations of 0 nM, 1 nM, 10 nM, and 100 nM) for 16 h. The mRNA levels of HIF-1α target genes were determined by semiquantitative RT-PCR. β-actin was used as an internal control. D. DMSO vehicle control. N, normoxia; H, hypoxia. (B) A549 cells were treated with serum-reduced culture media containing Compound 12 (at concentrations of 0 nM, 10 nM, and 100 nM) for 16 h. Media supernatant was collected, and secreted VEGF was determined by ELISA after removal of cellular debris. N, normoxia; H, hypoxia. **P < 0.01 versus hypoxia (H) DMSO (D)-treated control. (C) HUVECs were treated with Compound 12, at the indicated concentrations, in the presence of VEGF (20 ng/mL) for 24 h in 1% serum-containing media. […] Cells that migrated through the membrane (8 μm pore size) were stained with hematoxylin and eosin, pictured as shown in upper panel, and counted (graph). *P < 0.05, **P < 0.01 versus VEGF-treated control. […] (F) Compound 12 (0.1 μg and 1 μg dosages) and retinoic acid (RA, positive control) were applied to the ED 4.5 CAM for two days, neovessel formation from the large vessels was observed, and percentages of positive angiogenic eggs (from total eggs tested) were calculated. […]

HIF-1α = details: cited from earlier work
[2] = tested on: angiogenesis (hemoglobin content of Matrigel plug); test: Matrigel plug assay in C57BL/6J mice; format: in vivo, mouse; details: Compound 12 100 nM, gefitinib 5 μM in Matrigel, 10 days
Description: HIF-1α is synthesized by growth factor signaling pathways, such as those of EGFR [30] [31]. Inhibition of HIF-1α in its pathways of synthesis, as well as in its pathway of degradation, would seem to make for a more efficient anti-cancer/anti-angiogenesis treatment. To confirm this, we performed a tumor allogaft experiment using Lewis lung carcinoma (LLC) cells. 1 × 10^6 LLC cells were inoculated into the mouse flank subcutaneously (s.c.), and treatment with Compound 12 (5 mg/kg) and/or gefitinib (an EGFR inhibitor, 50 mg/kg), via intraperitoneal (i.p.) administration, was performed every other day for 20 days. […] To confirm the effect of Compound 12 on angiogenesis, we analyzed angiogenesis using the Matrigel plug assay. […]
Figure 6 Compound 12 suppressed allogaft tumor growth and enhanced the effects of a chemotherapeutic agent (A, B) Lewis lung carcinoma cells were inoculated into flanks of C57BL/6J mice (Day 0). […] Tumor size (A) and tumor weight (B) were measured three times a week and on the final day, respectively. […] The content of hemoglobin was quantified and graphed. (D) Tumor tissue sections (10 μm) indicated were stained with H&E and immunostained with anti-CD31 antibody to detect microvessel density; CD31+ cell percentages were then calculated and graphed. […] (F) Images and quantitative comparisons (graph) for Ki67+ proliferating cells in tumor center regions are shown. […]

[3] = tested on: Lewis lung carcinoma (LLC) cells; test: Lewis lung carcinoma allograft in C57BL/6J mice with immunohistochemistry; format: in vivo, mouse
Description: HIF-1α is synthesized by growth factor signaling pathways, such as those of EGFR [30] [31]. Inhibition of HIF-1α in its pathways of synthesis, as well as in its pathway of degradation, would seem to make for a more efficient anti-cancer/anti-angiogenesis treatment. To confirm this, we performed a tumor allogaft experiment using Lewis lung carcinoma (LLC) cells. 1 × 10^6 LLC cells were inoculated into the mouse flank subcutaneously (s.c.), and treatment with Compound 12 (5 mg/kg) and/or gefitinib (an EGFR inhibitor, 50 mg/kg), via intraperitoneal (i.p.) administration, was performed every other day for 20 days. At Day 20, mice were sacrificed and tumor tissue was fixed in formaldehyde for 1 h for further histological examination. […] To confirm the effect of Compound 12 on angiogenesis, we analyzed angiogenesis using the Matrigel plug assay. […] To confirm the effects of Compound 12 on anti-angiogenesis, we sectioned the tumor tissues to determine microvessel density (MSD) via immunohistochemistry (using CD31 antibody).
Figure 6 Compound 12 suppressed allogaft tumor growth and enhanced the effects of a chemotherapeutic agent (A, B) Lewis lung carcinoma cells were inoculated into flanks of C57BL/6J mice (Day 0). From two days after inoculation, mice were treated intraperitoneally with Compound 12 (5 mg/kg body weight) and gefitinib (50 mg/kg body weight), three times a week, for 18 days and then sacrificed. Tumor size (A) and tumor weight (B) were measured three times a week and on the final day, respectively. Tumor masses were photographed and shown in box below the graph. **P < 0.05 versus control group. (C) Matrigel was treated with DMSO, Compound 12 (100 nM), and gefitinib (5 μM) and inoculated in the flank of C57BL/6J mice. After 10 days matrigel plug was removed and photographed. The content of hemoglobin was quantified and graphed. (D) Tumor tissue sections (10 μm) indicated were stained with H&E and immunostained with anti-CD31 antibody to detect microvessel density; CD31+ cell percentages were then calculated and graphed. Scale bar, 100 μm. **P < 0.05 versus control group. (E) Images and quantitative comparisons (graph) for hypoxic regions, immunostained CA9 protein, and microvessels (CD31+ cells) in tumor center regions are shown. Scale bar, 100 μm. **P < 0.05 versus control group. (F) Images and quantitative comparisons (graph) for Ki67+ proliferating cells in tumor center regions are shown. Scale bar, 100 μm. **P < 0.05 versus control group.
We determined levels of hypoxia in tissues via: 1) antibodies against the hypoxic cell marker pimonidazole (PIMO), and 2) checking expression levels of carbonic anhydrase (CA9), a downstream target of HIF-1.
LLC cells (1 × 10^6) were injected subcutaneously into the flanks of 6-week-old C57BL/6J mice (Day 0)(SLC, Japan). Tumor size and body weight were measured 3 time a week. Tumor tissues were removed at day 20 after completion of injection of vehicle or drugs and fixed with 4% paraformaldehyde (PFA). After tissue processing for frozen sample preparation protocol, samples were embedded in OCT compound and frozen quickly by liquid nitrogen. Frozen blocks were cut into 10 μm sections and stained with hematoxylin and eosin (H&E) for light microscopy. Additional tissue sections for immunohistochemistry were blocked with 5% goat serum in PBST (0.03% Triton X-100 in PBS) and then incubated for 3 h at RT with following primary antibodies, anti-CD31 and anti-Ki67. To detect the hypoxic area in the tumors, Hypoxyprobe-1™ (60 mg/kg, Natural Pharmacia International) was iv injected 90 min before tissue fixation. Tumors were harvested, sectioned and stained with FITC-conjugated anti-Hypoxyprobe antibody.

[4] = read-out: IC50 of HIF-1α inhibitor

Question: Which CAM angiogenesis [1] does the source give for `CC1=C(/C=C/C(C)=C/C=C/C(C)=C/C(=O)O)C(C)(C)CCC1` [retinoic acid, reference compound] here?
Answer: significantly suppressed CAM angiogenesis

Question: With `OCc1ccc(-c2nn(Cc3ccccc3)c3ccccc23)o1` [YC-1, 3-(5′-hydroxymethyl-2′-furyl)-1-benzyl indazole] as the compound, how does the IC50 (HIF-1α; [4]) read?
Answer: 2000 to 50000 nM

Question: For `COC(=O)c1ccc(O)c(NC(=O)COc2ccc(C34CC5CC(CC(C5)C3)C4)cc2)c1` [LW6], which IC50 (HIF-1α; [4]) is on record?
Answer: 2500 to 3000 nM

Question: Which IC50 (HIF-1α; reference not given, read-out: inhibitory concentration of HIF-1α inhibitor) does the source give for `CS[C@H]1SC[C@H]2C(=O)N(C)[C@@H](C(C)C)C(=O)OC[C@@H](NC(=O)c3cnc4ccccc4n3)C(=O)N[C@@H](C)C(=O)N(C)[C@@H]1C(=O)N(C)[C@@H](C(C)C)C(=O)OC[C@@H](NC(=O)c1cnc3ccccc3n1)C(=O)N[C@@H](C)C(=O)N2C` [echinomycin] here?
Answer: 1.2 nM

Question: With `CC(C)C[C@H](NC(=O)[C@H](Cc1ccccc1)NC(=O)c1cnccn1)B(O)O` [bortezomib] as the compound, how does the “concentrations inhibiting p300-HIF-1α binding / HIF-1α” value (HIF-1α; prostate cancer cells) read?
Answer: 0.6 to 30 nM

Question: For `CC1(C)C=Cc2c(ccc(C(=O)/C=C/c3cccs3)c2O)O1` [SYP-5], which IC50 (HIF-1α; [4]) is on record?
Answer: 10000 nM

Question: Which “anti-angiogenic activity, Matrigel plug (hemoglobin content)” value [2] does the source give for `COc1cc2ncnc(Nc3ccc(F)c(Cl)c3)c2cc1OCCCN1CCOCC1` [gefitinib, reference compound] here?
Answer: anti-angiogenic activity was increased

Question: And the “levels of PIMO and CA9 in tumors, single agent” value ([3]; LLC allograft tumor sections)?
Answer: significantly diminished

Question: And the “microvessel density (MSD), CD31, single agent” value ([3]; LLC allograft tumor sections)?
Answer: significantly decreased MSD

Question: What about the “cells expressing Ki-67 protein in tumors” value ([3]; LLC allograft tumor sections, single agent) of the same compound?
Answer: significantly decreased

Question: And the “tumor growth, single agent” value ([3]; LLC allograft, C57BL/6J mice, i.p., Compound 12 5 mg/kg, gefitinib 50 mg/kg)?
Answer: inhibited tumor growth significantly
